# Source: a melting point compilation (Tetko et al.; mined from patent text by program, amines drawn as free bases though some values may be those of a salt)
row,Compound,melting point
1,CCCc1nn(C)c2c1N=C(c1cc(/C=C/C(=O)N(C)C)ccc1OCC)NC2,219 to 221 °C
2,CCCCCCCCCCCCCCS(=O)(=O)c1cc(S(C)(=O)=O)ccc1-n1oc(C(C)(C)C)c(CCl)c1=O,110 to 111 °C
3,CCC(=O)OC1(C(=O)COC(C)=O)CCC2C3CC(C)C4=CC(=O)C=CC4(C)C3C(O)CC21C (stereo unspecified),138 °C
4,CC(=O)Nc1ccc2c3c(cccc13)S(=O)(=O)C(C)N2 (stereo unspecified),189 to 190 °C
5,COC(=O)NC(=O)Cc1nc(-c2cc(C(C)(C)C)c(O)c(C(C)(C)C)c2)oc1C,125 to 127 °C
6,O=C(CSc1ccccn1)C12CC3CC(CC(C3)C1)C2,60 to 61 °C
7,Cc1cc(SC2=C(O)CC(C3CCCC3)(C3CCCC3)OC2=O)c(C(C)(C)C)cc1N,163 to 165 °C
8,C=C(c1ccc(OC)cc1)c1ccc(N2CCCC2)cc1,159 to 162 °C
9,NC(=O)Cc1nc(-c2ccc(Cl)cc2)sc1-c1ccccc1,202 to 203 °C
10,CCCN(CC)S(=O)(=O)NC(=S)N1CC(c2ccccc2)C(c2ccc(Cl)cc2)=N1 (stereo unspecified),144 to 146 °C
11,Clc1ccc2c(c1)CNc1ccccc1O2,123 to 125 °C
12,NCCc1ccc(C=Cc2ccccc2)cc1,141 to 156 °C
13,CCc1cccc(CC(=O)O)c1OCCn1cc(CCOc2ncc(C(F)(F)F)cc2Cl)c(OC(C)C)n1,76.5 to 77.5 °C
14,O=C(O)c1cccc(C(=O)O)c1Nc1ccc(I)cc1,241 to 243 °C
15,CCCCc1nn(-c2cc(NC(=O)OCCC)ccc2Cl)c(=O)n1Cc1ccc(-c2ccccc2S(=O)(=O)NC(=O)c2ccccc2Cl)cc1,> 119 °C
16,CCCc1cn(C)cc(-c2ccc(Cl)c(C(F)(F)F)c2)c1=O,141 to 142 °C
17,CC(C)(C)OC(=O)NCCNC(=O)c1cc([N+](=O)[O-])ccn1,130 to 131 °C
18,CCOC(=O)c1cc(OC2CCCCC2=O)[nH]n1 (stereo unspecified),122 to 124 °C
19,COc1cccc(OC)c1C(=O)NC(=S)NNC(=O)c1cnc2ccccc2c1,242 to 243 °C
20,CC(C)OP(=O)(OCN1C(=O)c2c(C(C)C)cc(OCC(=O)O)cc2S1(=O)=O)OC(C)C,118 to 125 °C
21,CC1SC(=O)NN=C1c1ccc2c(c1)C(=NNC1CCCCC1)C(=O)N2 (stereo unspecified),217 °C
22,CCOC(C)OCC(C)C1CCC2C3C=CC4=CC(=O)C5OC5C4(C)C3CCC12C (stereo unspecified),91 to 93 °C
23,CCOC(=O)c1cnc2c(c(C)nc3cc(C)nn32)c1NCCCN(C)C,73 to 75 °C
24,Nc1nc(N)c(CCCNc2ccc(C(=O)N[C@@H](CCC(=O)O)C(=O)O)c(Cl)c2)c(=O)[nH]1,150 to 178 °C
25,CC1(C)C(N)CN1c1c(F)cc2c(=O)c(C(=O)O)cn(C3CC3)c2c1F (stereo unspecified),214 to 216 °C
26,CCn1nc(C(F)(F)F)c(CS(=O)(=O)C2=NOC(C)(CCl)C2)c1Cl (stereo unspecified),123 to 124 °C

row,Compound,melting point
1,Cc1nc(C)c(C(=O)CBr)[nH]1,128 to 132 °C
2,CN(C(C)(C)C)S(=O)(=O)CC(N)=O,105 to 109 °C
3,COc1ccc(-c2cnc3[nH]cc(C(=O)NC4CCN(C)C4)c3n2)cc1OC (stereo unspecified),193 to 194 °C
4,CS(=O)C(C)(O)c1ccc(-c2ccccc2)cc1 (stereo unspecified),160 to 162 °C
5,CCCCC(CC)(CO)C(=O)O (stereo unspecified),45 to 46 °C
6,CNC(=O)CCC(=O)c1c(OC)cccc1OC,134 °C
7,CC1=CC2(C=CC1(C)C(Cl)(Cl)Cl)SCC(C(C)(C)C)CS2 (stereo unspecified),141 to 143 °C
8,CN(C)c1ccc([N+](=O)[O-])c(CO)c1,138 to 139 °C
9,CCOC(=O)c1c(-c2cnccn2)ssc1=S,125 °C
10,CC(C)(C)c1ccc(N2CCOCC2)c(NP(=O)(O)O)c1,79 to 83 °C
11,O=C(Nc1ccc(Oc2ccccc2)cc1)N1CCN(c2ncnc3ccc(Br)cc23)CC1,169 to 170 °C
12,CC(C)(C)C(O)(Cn1cncn1)C1CCC1 (stereo unspecified),94 to 99.5 °C
13,CC(C)(C)OC(=O)n1[nH]c(=O)c2ccccc21,145 °C
14,N#Cc1ccc(OCc2ccc3c(c2)OCO3)cc1F,139 to 140 °C
15,CC(=O)C(=CNN1C=CC=NC1c1ccncc1)C(C)=O (stereo unspecified),182 to 183 °C
16,O=C(c1cocc1C(=O)N1CCCCC1)N1CCCCC1,180 to 183 °C
17,COC1CCc2c(c(C)[nH]c(=O)c2C#N)C1 (stereo unspecified),257 to 259 °C
18,CC1(C)Oc2ccc([N+](=O)[O-])cc2[C@@H](O)[C@@H]1Br (relative stereo),114 to 116 °C
19,CC1(C)CC1C(=O)NC(=CCCCSc1ncccc1O)C(=O)O (stereo unspecified),> 70 °C
20,O=C(c1ccco1)N1CCc2cc(S(=O)(=O)n3cc(-c4ccccc4)[nH]c3=O)ccc21,256 to 257 °C
21,NC(=O)N1C(=O)C(C(=O)c2cccs2)c2nc(Cl)c(Cl)cc21 (stereo unspecified),237 to 240 °C
22,O=C(NCCCCCCOC(=O)N1CCC2(CCCC2)CC1)OC1CCN(C(=O)Oc2ccc(-c3ccccc3)cc2)CC1,110 to 111 °C
23,CCCCCCCNC(=O)Nc1ccc(-n2ccnc2)cc1C(=O)NCC1CCN(C(c2ccccc2)c2ccccc2)CC1,183 to 185 °C
24,Cc1ccc(Sc2ccnc3sccc23)cc1,90 to 92 °C
25,CN(c1cccc2cc(-c3nccs3)[nH]c12)S(=O)(=O)c1ccsc1C(C)(C)O,153 °C
26,NC(=O)[C@H]1CCCN1C(c1ccccc1)(c1ccccc1)c1ccccc1,162 °C

row,Compound,melting point
1,NCCc1c[nH]c2ccc3c(=O)n(CCc4ccccc4)ccc3c12,162 to 166 °C
2,Cc1cccc(C2=CCN(c3ccc(F)nn3)CC2)c1,105 °C
3,Nc1ncccc1OCc1c(F)cccc1Cl,123 to 130 °C
4,COC(=O)CCC#CCCC(=O)O,71.5 to 72 °C
5,Cn1c(CCc2cc(C(F)(F)F)cc(C(F)(F)F)c2)c(Cc2c[nH]c3ccccc23)oc1=O,109 to 110 °C
6,CC(C)(C)OC(=O)NCc1[nH]c(=O)c2ccc(C#N)cc2c1-c1ccc(Cl)cc1,234 to 235 °C
7,O=c1ccc(-c2cc(Cl)c(O)c(Cl)c2)n[nH]1,> 300 °C
8,O=[N+]([O-])c1cccc2c(OS(=O)(=O)C(F)(F)F)ccnc12,108 °C
9,Cc1cc(O)c(SC23CC4CC(CC(C4)C2)C3)c(=O)o1,176 °C
10,CCn1nnnc1SCc1c(S(C)(=O)=O)ccc(C(=O)OC)c1Cl,109 to 110 °C
11,Cc1nc(NC(=O)c2ccccc2)sc1C(=O)NCc1ccccc1Cl,191 to 193 °C
12,CCc1nc2c(N)nc3cc(OCc4ccc(S(=O)(=O)NCCc5cc6ccccc6[nH]5)cc4)ccc3c2s1,100 to 101 °C
13,O=C1CCCCC1C(C[N+](=O)[O-])c1ccc(C(F)(F)F)cc1 (racemic),107 to 108 °C
14,Ic1cnc(-c2ccccn2)[nH]1,175 to 179 °C
15,CC1(CO)CCN(c2ccc(C#N)c3ccccc23)CC1,136 to 137 °C
16,O=C(O)c1cc(OCCCOc2cccc(-c3ccccc3)c2)cc(OCCCOc2cccc(-c3ccccc3)c2)c1,65 to 69 °C
17,Cc1nc(NC(=O)c2ccc(OC(F)(F)F)cc2)sc1C(=O)NCc1ccccc1,168 to 170 °C
18,CCCCCCCCCCCC/C(=C\C=C\C(=O)O)c1ccc(OC)cc1,85 to 88 °C
19,CC1CC(=Cc2ccccc2)c2nc3cc(N)ccc3c(=O)n21 (stereo unspecified),239 to 241 °C
20,COc1ccc(-c2c3c(cc4ccc(OC)c(OC)c24)C(=O)NC3)cc1,258 to 260 °C
21,COC(=O)c1ccc2[nH]c(S)nc2n1,233 to 234 °C
22,CCc1nc(Cl)cc(NN)n1,147 to 150 °C
23,CCOC(=O)c1ccc(C=C(C)c2cc3c(s2)C(C)(C)CCC3(C)C)cc1,118 to 120 °C
24,Cc1ccc(OC(=O)C=Cc2ccccc2)c(C(=O)O)c1,162 °C
25,COc1c(Cl)cc(NC(=O)OCCCl)c(OC)c1NC(=O)OCCCl,87 °C
26,COC(CCC(C)C1CCC2C3C(OC(C)=O)CC4CC(OC(C)=O)CCC4(C)C3CC(=O)C12C)=NNS(=O)(=O)c1ccc(C)cc1 (stereo unspecified),146 to 147 °C

row,Compound,melting point
1,Cc1cccc(O[C@@H]2CCNC[C@H]2O)c1C (relative stereo),127 to 129 °C
2,CCC(O)(CC(=O)OC(C)(C)C)c1cc[nH]c(=O)c1 (stereo unspecified),167 °C
3,CCCCNc1c(C(=O)OCC)c(C)nc2nccnc12,56 to 58 °C
4,CCOC(=O)CNC(=O)N(CC(=O)OCC)Cc1ccccc1,64 to 65 °C
5,N#Cc1ccc(-c2cc(-c3ccc(C#N)cc3[N+](=O)[O-])no2)cc1,264 to 265 °C
6,Cc1ccc2c(Cl)cc(I)c(O)c2n1,85 to 93 °C
7,CCO[C@@H]1c2ccn3c(C)c(C)nc3c2N[C@H](c2ccccc2)[C@H]1O,143 to 144 °C
8,CC(=O)N1CCCC(=O)c2c(Cl)cccc2CCC1=O,115 to 116 °C
9,CCC(=O)c1cc(C2(c3cccc(-c4cncnc4)c3)N=C(N)N(C)C2=O)cs1 (stereo unspecified),167 to 172 °C
10,CC(CCNc1cccc(-c2ccnc3c(C(=O)c4cccs4)cnn23)c1)c1ccccc1 (stereo unspecified),64 to 68 °C
11,CC(C)C(NS(=O)(=O)c1ccc(-c2ccc([N+](=O)[O-])cc2)cc1)C(=O)O (stereo unspecified),165 to 167 °C
12,COC(=O)c1ccc2c(c1)C=CC(=CCl)CO2,72 to 77 °C
13,CCOC1CC(n2cc(CC)c(=O)[nH]c2=O)OC1CO (stereo unspecified),157 °C
14,CC1(C)C2CCC1(C)C(C(=O)OC(CSc1ccccc1)(C(=O)Nc1ccc(C#N)c(C(F)(F)F)c1)C(F)(F)F)C2 (stereo unspecified),140 to 143 °C
15,Cc1csc(-c2cc(-c3ccncc3)c3n(c2=O)CCCc2ccncc2-3)n1,300 to 302 °C
16,COc1ccc(S(=O)(=O)C(CC(=O)NO)c2ccccc2)cc1 (stereo unspecified),157 to 159 °C
17,COc1cc(Cc2cnc(N)nc2NC(C)=O)cc(OC)c1C(C)(C)O,214 to 216 °C
18,Cc1ccc(-c2c3c(cc4ccc(O)cc24)-c2ccc(O)cc2CO3)cc1F,238 to 240 °C
19,CCOC(=O)N1CC[C@H](NC(=O)c2cc([N+](=O)[O-])c(Cl)cc2OC)[C@H](OC)C1 (relative stereo),181 °C
20,COc1ccc(Oc2cnc(N)nc2N)c(C(C)C)c1,170 to 171 °C
21,COc1cc(C=CC(=O)CCCO)cc(OC)c1,74 to 77 °C
22,Cn1ncc(/C=C/C(=O)Nc2ccc(Cc3nc(C(=O)O)cs3)cc2)c1-c1ccc(F)cc1,226 to 227 °C
23,CCOc1cc(C(CC(=O)OC)N2C(=O)c3ccc(N)cc3C2=O)ccc1OC (stereo unspecified),65 to 67 °C
